Structures can show the parent of a compound that is named as a salt.

From US6903085B1, “Substituted piperidine compounds useful as modulators of chemokine receptor activity” (AstraZeneca, AB, priority 1999, dated 2005) come the findings set out here.

Take `O=C(Cc1csc(-c2cnccn2)n1)NC1CCN(Cc2ccc(Cl)c(Cl)c2)CC1` [Example 100, N-[1-(3,4-Dichlorobenzyl)-4-piperidinyl]-2-[2-(2-pyrazinyl)-1,3-thiazol-4-yl]acetamide]: the melting point – broadly, the temperature of the solid-liquid transition – lay within 186 to 189 °C.

`O=C(CCc1nc(-c2ccccn2)no1)NC1CCN(Cc2ccc(Cl)c(F)c2)CC1` [Example 363, N-[1-(4-Chloro-3-fluorobenzyl)-4-piperidinyl]-3-[3-(2-pyridinyl)-1,2,4-oxadiazol-5-yl]propanamide] displayed a melting point of 132 °C.

`O=C(CSc1ncc(-c2ccccc2)cn1)NC1CCN(Cc2ccc(Cl)c(Cl)c2)CC1` [Example 101, N-[1-(3,4-Dichlorobenzyl)-4-piperidinyl]-2-[(5-phenyl-2-pyrimidinyl)sulfanyl]acetamide] showed a melting point of 157 °C.

Consider `COc1cccc(NC(=O)CNC2CCN(Cc3ccc(Cl)c(Cl)c3)CC2)c1` (as salt: hydrochloride) [Example 104, 2-{[1-(3,4-Dichlorobenzyl)-4-piperidinyl]amino}-N-(3-methoxyphenyl)acetamide, dihydrochloride Salt], for which the melting point lay in the range of 274 to 276 °C.

The molecule `O=C(Nc1ccc(Cl)c(Cl)c1)NC1CCN(Cc2ccc(Cl)c(Cl)c2)CC1` [Example 105, N-[1-(3,4-Dichlorobenzyl)-4-piperidinyl]-N′-(3,4-dichlorophenyl)urea] returned a melting point of 189 to 190 °C.

With `O=C(CSc1ccc(C(F)(F)F)cn1)NC1CCN(Cc2ccc(Cl)c(Cl)c2)CC1` [Example 94, N-[1-(3,4-Dichlorobenzyl)-4-piperidinyl]-2-{[5-(trifluoromethyl)-2-pyridinyl]sulfanyl}acetamide], the melting point worked out at 98 °C.

Molecule `COc1cccc(NC(=O)NC2CCN(Cc3ccc(Cl)c(Cl)c3)CC2)c1` [Example 106, N-[1-(3,4-Dichlorobenzyyl)-4-piperidinyl]-N′-(3-methoxyphenyl)urea] returned a melting point of 178 to 179 °C.

With `O=C(Cc1nc(-c2ccccn2)no1)NC1CCN(Cc2ccc(Cl)c(Cl)c2)CC1` [Example 359, N-[1-(3,4-Dichlorobenzyl)-4-piperidinyl]-2-[3-(2-pyridinyl)-1,2,4-oxadiazol-5-yl]acetamide], the melting point amounted to 145 °C.

For the molecule `O=C(CCc1nc(-c2ccccn2)no1)NC1CCN(Cc2ccc(F)c(Cl)c2)CC1` [Example 362, N-[1-(3-Chloro-4-fluorobenzyl)-4-piperidinyl]-3-[3-(2-pyridinyl)-1,2,4-oxadiazol-5-yl]propanamide], the melting point was found to be 150 °C.

Regarding `Clc1ccc(CN2CCC(Nc3nc4ccccc4[nH]3)CC2)cc1Cl` [Example 103, N-[1-(3,4-Dichlorobenzyl)-4-piperidinyl]-1H-benzimidazol-2-amine], the melting point was determined as 125 °C.

The molecule `O=C(CCCC(=O)c1ccccc1)NC1CCN(Cc2ccc(Cl)c(Cl)c2)CC1` [Example 96, N-[1-(3,4-Dichlorobenzyl)-4-piperidinyl]-5-oxo-5-phenylpentanamide] had a melting point of 130 °C.

In turn, `O=C(CSc1ccccc1)NC1CCN(Cc2ccc(Cl)c(Cl)c2)CC1` [Example 98] came in with a melting point of 97 to 99 °C.

`O=C(Cc1ccc(F)cc1)NC1CCN(Cc2ccc(Cl)c(Cl)c2)CC1` [Example 99, N-[1-(3,4-Dichlorobenzyl)-4-piperidinyl]-2-(4-fluorophenyl)acetamide] had a melting point of 144 to 147 °C.

As for `COc1ccc(CNC2CCN(Cc3ccc(Cl)c(Cl)c3)CC2)cc1` (as salt: hydrochloride) [Example 107, N-[1-(3,4-Dichlorobenzyl)-4-piperidinyl]-N-(4-methoxybenzyl)amine, dihydrochloride Salt], the melting point is greater than 250 °C.

`Cc1sc(-c2ccc(Cl)cc2)nc1CC(=O)NC1CCN(Cc2ccc(Cl)c(Cl)c2)CC1` [Example 97, 2-[2-(4-Chlorophenyl)-5-methyl-1,3-thiazol-4-yl]-N-[1-(3,4-dichlorobenzyl)-4-piperidinyl]acetamide] returned a melting point of 170 °C.

`O=C(CCc1nc(-c2ccccn2)no1)NC1CCN(Cc2ccc(Cl)c(Cl)c2)CC1` [Example 102, N-[1-(3,4-Dichlorobenzyl)-4-piperidinyl]-3-[3-(2-pyridinyl)-1,2,4-oxadiazol-5-yl]propanamide] registered a melting point of 155 °C.

Consider `Cc1c(CC(=O)NC2CCN(Cc3ccc(Cl)c(Cl)c3)CC2)cnn1-c1ccccc1` [Example 95, N-[1-(3,4-Dichlorobenzyl)-4-piperidinyl]-2-(5-methyl-1-phenyl-1H-pyrazol-4-yl)acetamide], for which the melting point is 165 °C.
